Reference: ChEMBL document CHEMBL3991601, “The target landscape of clinical kinase drugs” (Science, 2017)
pKd: −log10 of the molar value. Calls of active or inactive are those of the source. For most assays here, no stated cut-off is given here; in the data, actives have a measured Kd and inactives only a lower limit.

What was measured:
Deoxycytidine kinase = Deoxycytidine kinase (Homo sapiens, UniProt P27707)
Heme oxygenase 2 = biological target: T1, Heme oxygenase 2 (Homo sapiens, UniProt P30519)
T1 sequence (P30519 whole entry): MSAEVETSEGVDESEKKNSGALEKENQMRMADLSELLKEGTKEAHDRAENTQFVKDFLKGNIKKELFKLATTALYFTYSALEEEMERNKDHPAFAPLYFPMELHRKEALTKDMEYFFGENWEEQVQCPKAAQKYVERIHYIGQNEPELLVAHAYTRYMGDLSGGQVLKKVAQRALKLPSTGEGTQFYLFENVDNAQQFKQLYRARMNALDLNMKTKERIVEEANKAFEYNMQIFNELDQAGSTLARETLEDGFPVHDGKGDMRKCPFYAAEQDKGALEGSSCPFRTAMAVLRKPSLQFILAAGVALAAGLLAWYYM

[1] = biological target: Mitogen-activated protein kinase kinase kinase 4 (Homo sapiens, UniProt Q9Y6R4)
Chain of Mitogen-activated protein kinase kinase kinase 4 (Q9Y6R4 whole entry): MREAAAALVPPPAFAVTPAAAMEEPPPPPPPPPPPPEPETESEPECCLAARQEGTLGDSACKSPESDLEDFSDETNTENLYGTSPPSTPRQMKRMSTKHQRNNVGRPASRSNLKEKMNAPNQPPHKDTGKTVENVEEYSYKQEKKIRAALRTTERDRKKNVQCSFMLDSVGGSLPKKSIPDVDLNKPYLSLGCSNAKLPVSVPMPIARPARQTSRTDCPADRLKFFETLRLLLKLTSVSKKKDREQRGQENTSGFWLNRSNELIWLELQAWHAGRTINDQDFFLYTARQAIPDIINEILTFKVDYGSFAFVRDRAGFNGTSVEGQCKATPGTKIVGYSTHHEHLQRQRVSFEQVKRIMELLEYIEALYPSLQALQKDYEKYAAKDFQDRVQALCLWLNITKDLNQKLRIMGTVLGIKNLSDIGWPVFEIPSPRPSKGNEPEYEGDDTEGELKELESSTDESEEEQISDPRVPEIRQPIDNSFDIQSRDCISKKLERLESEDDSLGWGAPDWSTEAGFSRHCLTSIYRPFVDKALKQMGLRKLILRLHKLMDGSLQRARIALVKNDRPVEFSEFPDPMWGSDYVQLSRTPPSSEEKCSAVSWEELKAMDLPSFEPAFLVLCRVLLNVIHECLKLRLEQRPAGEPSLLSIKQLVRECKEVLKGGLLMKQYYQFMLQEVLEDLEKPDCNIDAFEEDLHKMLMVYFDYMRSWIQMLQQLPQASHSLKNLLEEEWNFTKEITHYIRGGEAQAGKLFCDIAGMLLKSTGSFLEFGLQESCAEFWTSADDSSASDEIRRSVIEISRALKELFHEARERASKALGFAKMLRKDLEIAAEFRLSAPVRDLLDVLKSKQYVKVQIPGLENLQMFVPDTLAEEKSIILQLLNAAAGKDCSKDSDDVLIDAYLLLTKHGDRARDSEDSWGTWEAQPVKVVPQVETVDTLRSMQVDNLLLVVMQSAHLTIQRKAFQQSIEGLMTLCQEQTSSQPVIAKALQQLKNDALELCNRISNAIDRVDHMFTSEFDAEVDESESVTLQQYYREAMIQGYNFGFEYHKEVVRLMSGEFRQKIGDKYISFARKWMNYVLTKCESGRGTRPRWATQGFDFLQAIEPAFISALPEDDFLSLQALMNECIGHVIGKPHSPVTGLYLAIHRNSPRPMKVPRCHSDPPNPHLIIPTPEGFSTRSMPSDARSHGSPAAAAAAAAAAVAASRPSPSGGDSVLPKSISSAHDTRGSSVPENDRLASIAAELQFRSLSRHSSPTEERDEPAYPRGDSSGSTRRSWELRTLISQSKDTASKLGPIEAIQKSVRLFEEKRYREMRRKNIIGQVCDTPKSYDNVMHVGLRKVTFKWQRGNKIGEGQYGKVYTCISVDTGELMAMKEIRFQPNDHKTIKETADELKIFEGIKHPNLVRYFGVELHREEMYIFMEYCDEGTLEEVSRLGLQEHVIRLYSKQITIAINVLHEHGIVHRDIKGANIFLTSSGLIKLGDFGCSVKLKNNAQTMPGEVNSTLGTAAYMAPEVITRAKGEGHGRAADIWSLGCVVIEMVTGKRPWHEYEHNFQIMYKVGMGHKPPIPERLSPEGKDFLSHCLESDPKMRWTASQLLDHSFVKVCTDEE

[2] = biological target: Receptor-interacting serine/threonine-protein kinase 2 (Homo sapiens, UniProt O43353)
Chain of Receptor-interacting serine/threonine-protein kinase 2 (O43353 whole entry): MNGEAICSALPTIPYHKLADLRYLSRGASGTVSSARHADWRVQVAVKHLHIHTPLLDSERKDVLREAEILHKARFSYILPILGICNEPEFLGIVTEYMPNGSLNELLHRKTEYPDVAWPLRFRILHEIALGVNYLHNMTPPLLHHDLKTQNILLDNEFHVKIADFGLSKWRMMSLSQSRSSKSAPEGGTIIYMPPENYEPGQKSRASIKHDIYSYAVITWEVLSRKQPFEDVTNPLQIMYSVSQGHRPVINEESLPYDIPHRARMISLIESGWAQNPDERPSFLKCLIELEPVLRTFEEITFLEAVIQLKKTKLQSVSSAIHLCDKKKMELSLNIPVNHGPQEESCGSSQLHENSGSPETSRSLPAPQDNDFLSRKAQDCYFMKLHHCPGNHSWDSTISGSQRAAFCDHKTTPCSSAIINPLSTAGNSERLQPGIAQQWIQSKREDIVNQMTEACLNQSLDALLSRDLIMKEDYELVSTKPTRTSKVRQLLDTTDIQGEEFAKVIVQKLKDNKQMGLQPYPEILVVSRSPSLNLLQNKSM

[3] = biological target: T2, Serine/threonine-protein kinase 3 (Homo sapiens, UniProt Q13188)
T2 sequence (Q13188 whole entry): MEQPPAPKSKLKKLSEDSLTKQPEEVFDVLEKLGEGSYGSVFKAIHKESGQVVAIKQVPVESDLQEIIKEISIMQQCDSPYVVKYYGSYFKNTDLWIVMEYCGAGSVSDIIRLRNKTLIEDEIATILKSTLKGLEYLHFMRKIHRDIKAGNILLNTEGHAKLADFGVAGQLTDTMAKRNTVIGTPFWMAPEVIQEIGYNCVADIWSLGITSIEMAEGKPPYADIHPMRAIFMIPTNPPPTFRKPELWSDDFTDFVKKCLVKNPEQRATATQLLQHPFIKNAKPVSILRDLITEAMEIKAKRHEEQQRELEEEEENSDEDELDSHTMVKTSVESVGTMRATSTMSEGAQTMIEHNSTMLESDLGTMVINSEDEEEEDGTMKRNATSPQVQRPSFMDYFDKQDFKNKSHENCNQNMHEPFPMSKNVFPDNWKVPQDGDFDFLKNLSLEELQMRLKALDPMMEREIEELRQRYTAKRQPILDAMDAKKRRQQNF

[4] = biological target: T3, Serine/threonine-protein kinase ULK1 (Homo sapiens, UniProt O75385)
T3 sequence (O75385 whole entry): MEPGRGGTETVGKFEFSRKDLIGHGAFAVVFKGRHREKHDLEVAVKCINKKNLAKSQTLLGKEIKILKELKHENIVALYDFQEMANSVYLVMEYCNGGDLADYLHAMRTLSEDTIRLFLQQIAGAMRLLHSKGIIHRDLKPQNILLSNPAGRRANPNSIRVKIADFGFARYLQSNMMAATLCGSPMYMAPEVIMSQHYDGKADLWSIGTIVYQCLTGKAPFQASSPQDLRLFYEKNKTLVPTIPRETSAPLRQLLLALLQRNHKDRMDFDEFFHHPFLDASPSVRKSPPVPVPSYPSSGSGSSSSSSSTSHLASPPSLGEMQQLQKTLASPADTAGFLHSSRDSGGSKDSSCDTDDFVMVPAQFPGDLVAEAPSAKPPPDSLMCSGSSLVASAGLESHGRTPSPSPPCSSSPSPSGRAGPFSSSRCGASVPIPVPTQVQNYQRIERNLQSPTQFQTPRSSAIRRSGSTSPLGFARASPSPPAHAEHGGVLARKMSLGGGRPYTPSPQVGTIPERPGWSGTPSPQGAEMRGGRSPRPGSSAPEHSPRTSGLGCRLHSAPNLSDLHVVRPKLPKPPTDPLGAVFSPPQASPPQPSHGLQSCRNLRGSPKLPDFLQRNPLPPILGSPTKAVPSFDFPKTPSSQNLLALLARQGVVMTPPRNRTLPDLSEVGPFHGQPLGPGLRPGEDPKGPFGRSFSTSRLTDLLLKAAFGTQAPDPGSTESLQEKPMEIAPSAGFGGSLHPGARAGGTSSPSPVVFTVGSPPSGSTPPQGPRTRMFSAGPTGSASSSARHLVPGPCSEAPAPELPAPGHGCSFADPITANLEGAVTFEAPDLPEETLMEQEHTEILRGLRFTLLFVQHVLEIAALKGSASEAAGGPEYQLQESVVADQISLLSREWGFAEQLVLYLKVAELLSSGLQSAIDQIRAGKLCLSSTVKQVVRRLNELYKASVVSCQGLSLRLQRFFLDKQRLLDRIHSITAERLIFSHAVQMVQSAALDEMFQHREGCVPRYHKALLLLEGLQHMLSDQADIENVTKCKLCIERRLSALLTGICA

[5] = biological target: T4, Serine/threonine-protein kinase STK11 (Homo sapiens, UniProt Q15831)
T4 sequence (Q15831 whole entry): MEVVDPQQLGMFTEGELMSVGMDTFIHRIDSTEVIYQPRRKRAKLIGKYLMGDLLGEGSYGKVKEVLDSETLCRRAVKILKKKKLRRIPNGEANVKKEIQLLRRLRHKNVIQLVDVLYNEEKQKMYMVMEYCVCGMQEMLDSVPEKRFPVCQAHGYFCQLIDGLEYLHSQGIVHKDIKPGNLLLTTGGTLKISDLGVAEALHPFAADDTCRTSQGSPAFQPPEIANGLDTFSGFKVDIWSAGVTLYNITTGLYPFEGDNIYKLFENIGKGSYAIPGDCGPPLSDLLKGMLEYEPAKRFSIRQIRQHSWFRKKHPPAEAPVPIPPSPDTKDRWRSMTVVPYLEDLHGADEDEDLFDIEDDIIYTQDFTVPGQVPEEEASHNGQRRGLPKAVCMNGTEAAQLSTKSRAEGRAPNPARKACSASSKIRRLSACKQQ

Chain of Deoxycytidine kinase (P27707 whole entry): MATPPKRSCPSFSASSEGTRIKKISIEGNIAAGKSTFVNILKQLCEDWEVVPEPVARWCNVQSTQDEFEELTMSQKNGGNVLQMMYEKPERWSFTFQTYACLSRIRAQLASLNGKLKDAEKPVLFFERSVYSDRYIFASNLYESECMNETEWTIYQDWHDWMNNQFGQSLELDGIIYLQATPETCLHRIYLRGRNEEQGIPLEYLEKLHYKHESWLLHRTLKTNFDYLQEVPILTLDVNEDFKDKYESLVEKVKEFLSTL

Structure (SMILES)	Kd (Deoxycytidine kinase)	Kd (Heme oxygenase 2)	Kd [1]	Kd [2]	Kd [3]	Kd [4]	Kd [5]	pKd [2]
C[C@@H](Oc1cc(C(=O)Nc2ccc(C(=O)N3CCN(C)CC3)cc2)nnc1N)c1c(Cl)ccc(F)c1Cl	> 30 µM (inactive)	> 30 µM (inactive)	> 30 µM (inactive)	> 30 µM (inactive)	> 30 µM (inactive)	> 30 µM (inactive)	–	–
CC(=O)c1cnc2ccc(-c3cc(Cl)c(O)c(Cl)c3)nc2c1N[C@H]1CC[C@H](CN(C)C)CC1	> 30 µM (inactive)	> 30 µM (inactive)	> 30 µM (inactive)	0.005 µM (active)	0.07 µM (active)	> 30 µM (inactive)	> 30 µM (inactive)	–
CCNC(=O)C#Cc1ccc2c(c1)NC(=O)/C2=C(\Nc1ccc(CN(C)C)cc1)c1ccccc1	> 30 µM (inactive)	> 30 µM (inactive)	> 30 µM (inactive)	> 30 µM (inactive)	5.05 µM (active)	> 30 µM (inactive)	> 30 µM (inactive)	–
C=CC(=O)N1CCC[C@H](n2c(=O)n(-c3ccc(Oc4ccccc4)cc3)c3c(N)ncnc32)C1	> 30 µM (inactive)	> 30 µM (inactive)	> 30 µM (inactive)	–	> 30 µM (inactive)	> 30 µM (inactive)	> 30 µM (inactive)	8.15
COCc1c(-c2ccc(NC(=O)Nc3cc(C(F)(F)F)ccc3F)c(F)c2)c2c(N)ncnn2c1CN1CCOCC1	> 30 µM (inactive)	> 30 µM (inactive)	> 30 µM (inactive)	> 30 µM (inactive)	> 30 µM (inactive)	> 30 µM (inactive)	> 30 µM (inactive)	–
COc1cc(Nc2ncc3c(n2)-c2ccc(Cl)cc2C(c2c(F)cccc2OC)=NC3)ccc1C(=O)O [ALISERTIB]	> 30 µM (inactive)	> 30 µM (inactive)	> 30 µM (inactive)	> 30 µM (inactive)	–	> 30 µM (inactive)	> 30 µM (inactive)	–
O=C(Nc1c[nH]nc1-c1nc2cc(CN3CCOCC3)ccc2[nH]1)NC1CC1 [AT-9283]	> 30 µM (inactive)	> 30 µM (inactive)	–	> 30 µM (inactive)	> 30 µM (inactive)	> 30 µM (inactive)	> 30 µM (inactive)	–
CNC(=O)c1ccccc1Sc1ccc2c(/C=C/c3ccccn3)n[nH]c2c1 [AXITINIB]	> 30 µM (inactive)	> 30 µM (inactive)	–	–	–	–	–	–
COc1cc([C@@H]2c3cc4c(cc3[C@H](O)[C@H]3COC(=O)[C@@H]23)OCO4)cc(OC)c1OC [AXL-1717]	> 30 µM (inactive)	> 30 µM (inactive)	> 30 µM (inactive)	> 30 µM (inactive)	> 30 µM (inactive)	–	> 30 µM (inactive)	–
NC(=O)Nc1cc(-c2cccc(F)c2)sc1C(=O)N[C@H]1CCCNC1 [AZD-7762]	> 30 µM (inactive)	> 30 µM (inactive)	> 30 µM (inactive)	> 30 µM (inactive)	–	0.115 µM (active)	> 30 µM (inactive)	–
CC(C)(C)c1nc(-c2cccc(NS(=O)(=O)c3c(F)cccc3F)c2F)c(-c2ccnc(N)n2)s1 [DABRAFENIB]	> 30 µM (inactive)	> 30 µM (inactive)	> 30 µM (inactive)	0.106 µM (active)	–	0.188 µM (active)	> 30 µM (inactive)	–
Cn1cc(C2=C(c3cn(C4CCN(Cc5ccccn5)CC4)c4ccccc34)C(=O)NC2=O)c2ccccc21 [ENZASTAURIN]	> 30 µM (inactive)	> 30 µM (inactive)	–	–	–	–	–	–
Cc1nc2cc(-n3ncc(C(=O)c4cc5ccccc5[nH]4)c3N)ccc2[nH]1 [FGFR INHIBITOR DEBIO 1347]	> 30 µM (inactive)	–	> 30 µM (inactive)	> 30 µM (inactive)	> 30 µM (inactive)	> 30 µM (inactive)	> 30 µM (inactive)	–
O=C(Nc1cc(C(F)(F)F)cc(C(F)(F)F)c1)c1cc(Cl)ccc1O [IMD-0354]	> 30 µM (inactive)	> 30 µM (inactive)	> 30 µM (inactive)	> 30 µM (inactive)	–	> 30 µM (inactive)	> 30 µM (inactive)	–
Cc1[nH]c(/C=C2\C(=O)Nc3ccccc32)c(C)c1CCC(=O)O [ORANTINIB]	> 30 µM (inactive)	> 30 µM (inactive)	> 30 µM (inactive)	> 30 µM (inactive)	–	> 30 µM (inactive)	–	–
CCOc1cc2ncc(C#N)c(Nc3ccc(F)c(Cl)c3)c2cc1NC(=O)/C=C/CN(C)C [PELITINIB]	> 30 µM (inactive)	> 30 µM (inactive)	–	> 30 µM (inactive)	> 30 µM (inactive)	> 30 µM (inactive)	> 30 µM (inactive)	–
N#CC[C@H](C1CCCC1)n1cc(-c2ncnc3[nH]ccc23)cn1 [RUXOLITINIB]	> 30 µM (inactive)	> 30 µM (inactive)	–	–	–	–	–	–
Cn1ncc(Cl)c1-c1cc(C(=O)N[C@H](CN)Cc2ccc(F)c(F)c2)oc1Cl [UPROSERTIB]	> 30 µM (inactive)	–	> 30 µM (inactive)	> 30 µM (inactive)	> 30 µM (inactive)	> 30 µM (inactive)	> 30 µM (inactive)	–

Now from value to molecule:

Kd (Deoxycytidine kinase)	Kd (Heme oxygenase 2)	Kd [1]	Kd [2]	Kd [3]	Kd [4]	Kd [5]	pKd [2]	Structure (SMILES)
> 30 µM (inactive)	> 30 µM (inactive)	> 30 µM (inactive)	> 30 µM (inactive)	> 30 µM (inactive)	0.19 µM (active)	–	–	Cc1csc(-c2nnc(Nc3ccc(Oc4ncccc4-c4ccnc(N)n4)cc3)c3ccccc23)c1 [AMG-900]
> 30 µM (inactive)	> 30 µM (inactive)	–	–	–	–	–	–	C[C@@H](Oc1cc(-n2cnc3ccc(CN4CCN(C)CC4)cc32)sc1C(N)=O)c1ccccc1C(F)(F)F [GSK-461364]
> 30 µM (inactive)	–	> 30 µM (inactive)	> 30 µM (inactive)	> 30 µM (inactive)	> 30 µM (inactive)	> 30 µM (inactive)	–	NC1(c2ccc(-c3nc4ccn5c(=O)[nH]nc5c4cc3-c3ccccc3)cc2)CCC1 [MK-2206]
> 30 µM (inactive)	> 30 µM (inactive)	> 30 µM (inactive)	0.958 µM (active)	–	–	> 30 µM (inactive)	–	NC(=O)c1c(OCc2c(F)cc(Br)cc2F)nsc1NC(=O)NCCCCN1CCCC1 [OSI-632]
> 30 µM (inactive)	> 30 µM (inactive)	> 30 µM (inactive)	> 30 µM (inactive)	–	0.028 µM (active)	> 30 µM (inactive)	–	CC(=O)NCC(=O)N1[C@@H]2CC[C@H]1c1ccc(Nc3ncc(C(F)(F)F)c(NC4CCC4)n3)cc12 [PF-03814735]
> 30 µM (inactive)	> 30 µM (inactive)	–	–	–	–	–	–	O=C(NOCCO)c1cc(CN2OCCCC2=O)c(F)c(F)c1Nc1ccc(I)cc1F [RO-4987655]
